Test results taken from US4472387A, “Pharmaceutical compositions capable of increasing cerebral serotonin concentration” (Panmedica S.A., priority 1981, dated 1984).
Structures can show the parent of a compound that is named as a salt.

Key:
[1] = system: cerebral metabolism of serotonin; assay: Percent increase in cerebral endogenic level of 5-HTP, 5-HT and 5-HIAA in the rat after intragastric administration; assay type: in vivo; details: 1 hour
Protocol: This study, carried out in the rat, determined the efficacy of the compositions according to the present invention on the cerebral metabolism of serotonin and established the potentiation of the serotoninogenic effect with respect to the reference (L)-5-HTP. (Purine, pyrimidine, and pyridine bases are, of themselves, entirely devoid of this activity.)
The animals were male adult rats of the OFA stain weighing 160 to 180 g. They were subjected to an alternating light cycle of 12 hours of light and 12 hours of darkness.
The various derivatives according to the invention were administered in distilled water intragastically at doses of 10, 25, and 50 mg/kg. After one hour, the rats were decapitated; and the contents of 5-hydroxytryptamine (5-HT), of 5-HIAA, and of 5-hydroxytryptophane in the brains were determined by the methods published by G. Curzon and Cool, [Brit. J. Pharmaco., 39, 653 (1970)].
They represent the percentage increase of cerebral endogenic levels at 10, 25, 50 mg/kg of the pure (L)-5-HTP (control) and of compositions according to the present invention for a given batch of control rats.

mice = assay: Toxicity, LD50 per os/mice; assay type: in vivo
Description: (§1) The toxicities of the salts and the complexes of 5-HTP according to the present invention are very low as witnessed by the LD50 's per os/mice assembled in Table 2 below: […]

[2] = Toxicity, LD50 per os/mice; assay type: in vivo; details: mouse, in vivo, po, mice
Description: as §1

[3] = prolonged administration of high doses; cited from earlier work
cerebral serotonin = details: 5-HTP alone; cited from earlier work
[4] = system: receptors of benzodiazepines; details: P. Skolnick, 1979; cited from earlier work
[5] = system: blood levels of 5-HTP and 5-hydroxyindolacetic acid (5-HIAA); assay: Clinical results: blood levels of 5-HTP and 5-HIAA; assay type: in vivo; details: for blood levels of 5-HTP / blood levels of 5-hydroxyindolacetic acid (5-HIAA): clinical results; for blood levels of 5-hydroxyindolacetic acid (5-HIAA): principal metabolite of serotonin
Description: In interpreting the clinical results of these remarkable medicaments, the applicants have observed that a complex of inosine with 5-HTP, particularly a complex of inosine with (L)-5-HTP, triples the blood levels of 5-HTP and 5-hydroxyindolacetic acid (5-HIAA), the principal metabolite of serotonin.

| Compound | Percent increase in cerebral endogenic level of 5-HIAA ([1]; 10 mg/kg) [%] | Percent increase in cerebral endogenic level of 5-Ht + 5-HIAA ([1]; 10 mg/kg) [%] | Percent increase in cerebral endogenic level of (L)-5-HTP ([1]; 10 mg/kg) [%] | Percent increase in cerebral endogenic level of 5-HIAA ([1]; 25 mg/kg) [%] | Percent increase in cerebral endogenic level of 5-HT ([1]; 25 mg/kg) [%] | Percent increase in cerebral endogenic level of 5-Ht + 5-HIAA ([1]; 25 mg/kg) [%] | Percent increase in cerebral endogenic level of (L)-5-HTP ([1]; 25 mg/kg) [%] | Percent increase in cerebral endogenic level of 5-HIAA ([1]; 50 mg/kg) [%] | Percent increase in cerebral endogenic level of 5-HT ([1]; 50 mg/kg) [%] | Percent increase in cerebral endogenic level of 5-Ht + 5-HIAA ([1]; 50 mg/kg) [%] | Percent increase in cerebral endogenic level of (L)-5-HTP ([1]; 50 mg/kg) [%] | Percent increase in cerebral endogenic level of 5-HT ([1]; 10 mg/kg) [%] | further results |
| --- | --- | --- | --- | --- | --- | --- | --- | --- | --- | --- | --- | --- | --- |
| N[C@@H](Cc1c[nH]c2ccc(O)cc12)C(=O)O [Example 4, THEOPHYLLINE SALT OF (L)-5-HYDROXYTRYPTOPHANE] | 85 | 75 | 55 | 270 | 25 | 150 | 1200 | 870 | 35 | 490 | 1710 | – | solubility (Aqueous solubility; water): 3.5 mg/mL; LD50 per os (mice): 1000 mg/kg |
| NC(Cc1c[nH]c2ccc(O)cc12)C(=O)O.O.O=c1[nH]cnc2c1ncn2[C@@H]1O[C@H](CO)[C@@H](O)[C@H]1O (racemic) [Example 2, (DL) 5-HYDROXYTRYPTOPHANE INOSINATE] | 135 | 85 | 110 | 345 | 80 | 220 | 1665 | 1190 | 110 | 700 | 1955 | 2 | – |
| N[C@@H](Cc1c[nH]c2ccc(O)cc12)C(=O)O [(L)-5-HTP pure, (L)-5-hydroxytryptophane, reference compound] | 40 | 55 | 120 | 110 | 25 | 110 | 260 | 300 | 35 | 180 | 650 | 10 | – |
| N[C@@H](Cc1c[nH]c2ccc(O)cc12)C(=O)O [Example 10, NI[…] OF (L)-5-HYDROXYTRYPTOPHANE] | – | – | – | – | – | – | – | – | – | – | – | – | LD50 [2]: > 2000 mg/kg |
| N[C@@H](Cc1c[nH]c2ccc(O)cc12)C(=O)O [Example 12, CAFFEINE SALT OF (L)-5-HYDROXYTRYPTOPHANE] | – | – | – | – | – | – | – | – | – | – | – | – | LD50 per os (mice): > 2000 mg/kg |
| N[C@@H](Cc1c[nH]c2ccc(O)cc12)C(=O)O [Example 5-HTP, 5-hydroxytryptophane] | – | – | – | – | – | – | – | – | – | – | – | – | renal lesions [3]: often results in renal lesions; decarboxylation at the peripheral level (cerebral serotonin): considerable decarboxylation; hepatic catabolism (cerebral serotonin): high hepatic catabolism; overall yield of cerebral serotonin synthesized with respect to the amount of 5-hydroxytryptophane administered (cerebral serotonin): very low; passage of the gastrointestinal and hematoencephalic barriers (cerebral serotonin): mediocre passage |
| O=c1[nH]cnc2nc[nH]c12 [hypoxanthine, 1,7-dihydropurine-6-one] | – | – | – | – | – | – | – | – | – | – | – | – | endogenous ligands of receptors of benzodiazepines [4]: can constitute endogenous ligands of receptors of benzodiazepines |
| O=c1[nH]cnc2c1ncn2[C@@H]1O[C@H](CO)[C@@H](O)[C@H]1O [inosine, 9-β-D-ribofuranosylhypoxanthine] | – | – | – | – | – | – | – | – | – | – | – | – | endogenous ligands of receptors of benzodiazepines [4]: can constitute endogenous ligands of receptors of benzodiazepines |
| NC(Cc1c[nH]c2ccc(O)cc12)C(=O)O.O=c1[nH]cnc2c1ncn2C1OC(CO)C(O)C1O (stereo not shown) [complex of inosine with 5-HTP] | – | – | – | – | – | – | – | – | – | – | – | – | blood levels of 5-HTP [5]: triples; blood levels of 5-hydroxyindolacetic acid (5-HIAA) [5]: triples |
| Cc1ncc(CO)c(CO)c1O.Cl.N[C@@H](Cc1c[nH]c2ccc(O)cc12)C(=O)O [Example 7, EQUIMOLECULAR COMPLEX OF PYRIDOXINE WITH (L)-5-HYDROXYTRYPTOPHANE] | 35 | 40 | 190 | 230 | 80 | 165 | 420 | 755 | 25 | 390 | 2500 | 20 | – |
| N[C@H](Cc1c[nH]c2ccc(O)cc12)C(=O)O [(D)-5-HTP, reference compound] | – | – | – | – | – | – | – | – | – | – | – | – | activity ([5]; pharmacological response): almost entire absence of activity |
| N[C@@H](Cc1c[nH]c2ccc(O)cc12)C(=O)O.O.O=c1[nH]cnc2c1ncn2[C@@H]1O[C@H](CO)[C@@H](O)[C@H]1O [Example 1, (L)-5-HTP INOSINATE] | 165 | 100 | 135 | 290 | 100 | 195 | 1755 | 1010 | 70 | 545 | 2665 | 2 | blood levels of 5-HTP [5]: triples; blood levels of 5-hydroxyindolacetic acid (5-HIAA) [5]: triples |
| EQU[…] OF (L)-5-HYDROXYT[…] OF ALLOPURINOL [Example 5] | 90 | 60 | 108 | 100 | 70 | 85 | 830 | 765 | 115 | 475 | 2100 | 15 | LD50 per os (mice): 1000 mg/kg |
| EQU[…] OF […] (DL)-5-HYDROXYTRYPTOPHANE [Example 6] | 20 | 8 | 115 | 90 | 30 | 65 | 230 | 360 | 60 | 210 | 1575 | – | solubility in water (Aqueous solubility; in words): very soluble in water |
